# From patent publication US9394446B2, “Method for recovering Ru complex dye from used dye solution” (Tanaka Kikinzoku Kogyo K.K., priority 2012, dated 2016)
# What was measured:
# [1] = Preliminary test: dissolving property of dye solution components in ether-based solvents, alkane-based solvents and water; conditions: for dissolving property in Dibutyl ether: 1 mg (solvents: 1 mL) in 1 mL dibutyl ether; for dissolving property in Dibutyl ether / dissolving property in Diethyl ether / dissolving property in Diisopropyl ether / dissolving property in Heptane / dissolving property in Hexane / dissolving property in Isoamyl ether / dissolving property in Methyl propyl ether / dissolving property in Octane / dissolving property in Pentane / dissolving property in t-Butyl methyl ether / dissolving property in Water: 25° C.; for dissolving property in Diethyl ether: 1 mg (solvents: 1 mL) in 1 mL diethyl ether; for dissolving property in Diisopropyl ether: 1 mg (solvents: 1 mL) in 1 mL diisopropyl ether; for dissolving property in Heptane: 1 mg (solvents: 1 mL) in 1 mL heptane; for dissolving property in Hexane: 1 mg (solvents: 1 mL) in 1 mL hexane; for dissolving property in Isoamyl ether: 1 mg (solvents: 1 mL) in 1 mL isoamyl ether; for dissolving property in Methyl propyl ether: 1 mg (solvents: 1 mL) in 1 mL methyl propyl ether; for dissolving property in Octane: 1 mg (solvents: 1 mL) in 1 mL octane; for dissolving property in Pentane: 1 mg (solvents: 1 mL) in 1 mL pentane; for dissolving property in t-Butyl methyl ether: 1 mg (solvents: 1 mL) in 1 mL t-butyl methyl ether; for dissolving property in Water: 1 mg (solvents: 1 mL) in 1 mL water, for comparison
# [2] = Mixing/dissolving behaviour of DMSO in ethers (inventors' observation); assay type: physicochemical
SMILES,dissolving property in Dibutyl ether [1],dissolving property in Diethyl ether [1],dissolving property in Diisopropyl ether [1],dissolving property in Heptane [1],dissolving property in Hexane [1],dissolving property in Isoamyl ether [1],dissolving property in Methyl propyl ether [1],dissolving property in Octane [1],dissolving property in Pentane [1],dissolving property in t-Butyl methyl ether [1],dissolving property in Water [1],"dissolving property of isoamyl ether, in words ([1]; isoamyl ether (C5H11—O—C5H11))","dissolving property of octane, in words ([1]; octane with a carbon number of 8)","mixing or dissolving in ethers (diethyl ether), in words [2]"
"CC#N [Acetonitrile, acetonitrile]",⊙ (those dissolved at 5 g/L or more and those fully miscible with a solvent for dye solution were labeled as “⊙” with excellent dissolving property),⊙ (those dissolved at 5 g/L or more and those fully miscible with a solvent for dye solution were labeled as “⊙” with excellent dissolving property),⊙ (those dissolved at 5 g/L or more and those fully miscible with a solvent for dye solution were labeled as “⊙” with excellent dissolving property),⊙ (those dissolved at 5 g/L or more and those fully miscible with a solvent for dye solution were labeled as “⊙” with excellent dissolving property),⊙ (those dissolved at 5 g/L or more and those fully miscible with a solvent for dye solution were labeled as “⊙” with excellent dissolving property),⊙ (those dissolved at 5 g/L or more and those fully miscible with a solvent for dye solution were labeled as “⊙” with excellent dissolving property),⊙ (those dissolved at 5 g/L or more and those fully miscible with a solvent for dye solution were labeled as “⊙” with excellent dissolving property),⊙ (those dissolved at 5 g/L or more and those fully miscible with a solvent for dye solution were labeled as “⊙” with excellent dissolving property),⊙ (those dissolved at 5 g/L or more and those fully miscible with a solvent for dye solution were labeled as “⊙” with excellent dissolving property),⊙ (those dissolved at 5 g/L or more and those fully miscible with a solvent for dye solution were labeled as “⊙” with excellent dissolving property),⊙ (those dissolved at 5 g/L or more and those fully miscible with a solvent for dye solution were labeled as “⊙” with excellent dissolving property),,,
"C[C@H](CCC(=O)O)[C@H]1CC[C@H]2[C@@H]3[C@H](O)C[C@@H]4C[C@H](O)CC[C@]4(C)[C@H]3CC[C@]12C [CDCA, chenodeoxychloic acid]",◯ (those having solubility of 0.05 g/L or more but less than 5 g/L and those miscible with a solvent for dye solution were labeled as “∘” with good dissolving property),⊙ (those dissolved at 5 g/L or more and those fully miscible with a solvent for dye solution were labeled as “⊙” with excellent dissolving property),⊙ (those dissolved at 5 g/L or more and those fully miscible with a solvent for dye solution were labeled as “⊙” with excellent dissolving property),◯ (those having solubility of 0.05 g/L or more but less than 5 g/L and those miscible with a solvent for dye solution were labeled as “∘” with good dissolving property),◯ (those having solubility of 0.05 g/L or more but less than 5 g/L and those miscible with a solvent for dye solution were labeled as “∘” with good dissolving property),Δ (those having the solubility of less than 0.05 g/L were labeled as “Δ” with fair dissolving property),⊙ (those dissolved at 5 g/L or more and those fully miscible with a solvent for dye solution were labeled as “⊙” with excellent dissolving property),Δ (those having the solubility of less than 0.05 g/L were labeled as “Δ” with fair dissolving property),◯ (those having solubility of 0.05 g/L or more but less than 5 g/L and those miscible with a solvent for dye solution were labeled as “∘” with good dissolving property),⊙ (those dissolved at 5 g/L or more and those fully miscible with a solvent for dye solution were labeled as “⊙” with excellent dissolving property),,slightly inferior dissolving property,poor dissolving property,
CCCCOc1ccc(-c2ccc(N(c3ccc(-c4ccc(C=C(C#N)C(=O)O)s4)cc3)c3ccc(-c4ccc(OCCCC)cc4OCCCC)cc3)cc2)c(OCCCC)c1 [D35],◯ (those having solubility of 0.05 g/L or more but less than 5 g/L and those miscible with a solvent for dye solution were labeled as “∘” with good dissolving property),⊙ (those dissolved at 5 g/L or more and those fully miscible with a solvent for dye solution were labeled as “⊙” with excellent dissolving property),⊙ (those dissolved at 5 g/L or more and those fully miscible with a solvent for dye solution were labeled as “⊙” with excellent dissolving property),Δ (those having the solubility of less than 0.05 g/L were labeled as “Δ” with fair dissolving property),Δ (those having the solubility of less than 0.05 g/L were labeled as “Δ” with fair dissolving property),Δ (those having the solubility of less than 0.05 g/L were labeled as “Δ” with fair dissolving property),⊙ (those dissolved at 5 g/L or more and those fully miscible with a solvent for dye solution were labeled as “⊙” with excellent dissolving property),Δ (those having the solubility of less than 0.05 g/L were labeled as “Δ” with fair dissolving property),Δ (those having the solubility of less than 0.05 g/L were labeled as “Δ” with fair dissolving property),⊙ (those dissolved at 5 g/L or more and those fully miscible with a solvent for dye solution were labeled as “⊙” with excellent dissolving property),,,,
"CC(C)(C)CCP(=O)(O)CCC(C)(C)C [DINHOP, bis-(3,3-dimethyl-butyl)-phosphinic acid]",⊙ (those dissolved at 5 g/L or more and those fully miscible with a solvent for dye solution were labeled as “⊙” with excellent dissolving property),⊙ (those dissolved at 5 g/L or more and those fully miscible with a solvent for dye solution were labeled as “⊙” with excellent dissolving property),⊙ (those dissolved at 5 g/L or more and those fully miscible with a solvent for dye solution were labeled as “⊙” with excellent dissolving property),⊙ (those dissolved at 5 g/L or more and those fully miscible with a solvent for dye solution were labeled as “⊙” with excellent dissolving property),⊙ (those dissolved at 5 g/L or more and those fully miscible with a solvent for dye solution were labeled as “⊙” with excellent dissolving property),⊙ (those dissolved at 5 g/L or more and those fully miscible with a solvent for dye solution were labeled as “⊙” with excellent dissolving property),⊙ (those dissolved at 5 g/L or more and those fully miscible with a solvent for dye solution were labeled as “⊙” with excellent dissolving property),⊙ (those dissolved at 5 g/L or more and those fully miscible with a solvent for dye solution were labeled as “⊙” with excellent dissolving property),⊙ (those dissolved at 5 g/L or more and those fully miscible with a solvent for dye solution were labeled as “⊙” with excellent dissolving property),⊙ (those dissolved at 5 g/L or more and those fully miscible with a solvent for dye solution were labeled as “⊙” with excellent dissolving property),Δ (those having the solubility of less than 0.05 g/L were labeled as “Δ” with fair dissolving property),,,
"C[S+](C)[O-] [DMSO, dimethyl sulfoxide]",,,,,,,,,,,,,,hardly mixed or dissolved
"CCO [Ethanol, ethanol]",⊙ (those dissolved at 5 g/L or more and those fully miscible with a solvent for dye solution were labeled as “⊙” with excellent dissolving property),⊙ (those dissolved at 5 g/L or more and those fully miscible with a solvent for dye solution were labeled as “⊙” with excellent dissolving property),⊙ (those dissolved at 5 g/L or more and those fully miscible with a solvent for dye solution were labeled as “⊙” with excellent dissolving property),⊙ (those dissolved at 5 g/L or more and those fully miscible with a solvent for dye solution were labeled as “⊙” with excellent dissolving property),⊙ (those dissolved at 5 g/L or more and those fully miscible with a solvent for dye solution were labeled as “⊙” with excellent dissolving property),⊙ (those dissolved at 5 g/L or more and those fully miscible with a solvent for dye solution were labeled as “⊙” with excellent dissolving property),⊙ (those dissolved at 5 g/L or more and those fully miscible with a solvent for dye solution were labeled as “⊙” with excellent dissolving property),⊙ (those dissolved at 5 g/L or more and those fully miscible with a solvent for dye solution were labeled as “⊙” with excellent dissolving property),⊙ (those dissolved at 5 g/L or more and those fully miscible with a solvent for dye solution were labeled as “⊙” with excellent dissolving property),⊙ (those dissolved at 5 g/L or more and those fully miscible with a solvent for dye solution were labeled as “⊙” with excellent dissolving property),⊙ (those dissolved at 5 g/L or more and those fully miscible with a solvent for dye solution were labeled as “⊙” with excellent dissolving property),,,
